From publication PMC9782539, “Synthesis, Characterization and Biological Evaluation of Benzothiazole–Isoquinoline Derivative” (Molecules, 2022)

What was measured:
Format in all cases: biochemical
[1] = molecular target: MAO; assay: MAO inhibitory activity (Holts method, rat liver mitochondrial enzyme)
Method: Male SD rats were sacrificed by decapitation, operated on ice, their livers were removed, and the liver surface was washed with precooled phosphate buffer. The liver was cut into pieces, and after washing (using PBS), 20 mL of 0.3 M sucrose buffer was added for homogenization. After fully homogenized, it was balanced by a tray balance. Low–temperature differential centrifugation was performed, and the obtained SD rat liver mitochondrial concentrate was the experimental monoamine oxidase stock solution, and was stored in a −80 °C refrigerator.
Added 25 µL of enzyme dilution solution and 25 µL of test derivatives (control group plus rasagiline, blank group plus 10% DMSO) to 96–well plate, incubated at 37 °C for 1 h, then 120 µL of substrate was added, 80 µL of chromogenic solution was added, incubated at 37 °C for 30 min, and its absorbance measured at 490 nm. In addition, in order to exclude the influence of protein, a protein control group was established, only the enzyme dilution was added, and the rest were replaced with PBS, and the absorbance value was detected at a wavelength of 490 nm. The inhibition rate of each concentration was substituted into the calculation software GraphPad Prism 8 to calculate the IC50 value.

[2] = molecular target: AChE (Homo sapiens, UniProt P22303); assay: biochemical
Method: (§1) Each concentration was tested three times in parallel, and 96 empty plates were taken, and 20 µL of the test sample or positive drug (10% DMSO was added to the blank control), 40 µL of AChE or BuChE (0.2 U/mL) and 100 µL of DTNB (0.001 mol/L) were added in turn, mixed well and incubated in a constant temperature water bath at 37 °C for 15 min.

[3] = molecular target: BuChE (Homo sapiens, UniProt P06276); assay: biochemical
Method: as §1

Chain of BuChE (P06276 29-602): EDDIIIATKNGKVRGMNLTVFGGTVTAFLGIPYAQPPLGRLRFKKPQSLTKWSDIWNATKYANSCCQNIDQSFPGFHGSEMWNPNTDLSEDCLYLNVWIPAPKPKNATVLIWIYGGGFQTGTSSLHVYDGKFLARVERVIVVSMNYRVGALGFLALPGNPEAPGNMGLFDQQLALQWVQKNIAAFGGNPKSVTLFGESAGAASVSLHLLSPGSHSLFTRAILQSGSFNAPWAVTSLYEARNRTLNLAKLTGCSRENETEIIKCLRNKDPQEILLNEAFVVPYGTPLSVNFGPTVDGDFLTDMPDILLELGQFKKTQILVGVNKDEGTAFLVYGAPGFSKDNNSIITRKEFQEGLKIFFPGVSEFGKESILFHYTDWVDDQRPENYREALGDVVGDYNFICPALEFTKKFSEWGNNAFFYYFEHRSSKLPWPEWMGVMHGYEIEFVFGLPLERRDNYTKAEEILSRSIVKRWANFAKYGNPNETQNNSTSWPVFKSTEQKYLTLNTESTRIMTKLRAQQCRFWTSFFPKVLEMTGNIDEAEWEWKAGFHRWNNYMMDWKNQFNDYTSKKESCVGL
Chain of AChE (P22303 32-614): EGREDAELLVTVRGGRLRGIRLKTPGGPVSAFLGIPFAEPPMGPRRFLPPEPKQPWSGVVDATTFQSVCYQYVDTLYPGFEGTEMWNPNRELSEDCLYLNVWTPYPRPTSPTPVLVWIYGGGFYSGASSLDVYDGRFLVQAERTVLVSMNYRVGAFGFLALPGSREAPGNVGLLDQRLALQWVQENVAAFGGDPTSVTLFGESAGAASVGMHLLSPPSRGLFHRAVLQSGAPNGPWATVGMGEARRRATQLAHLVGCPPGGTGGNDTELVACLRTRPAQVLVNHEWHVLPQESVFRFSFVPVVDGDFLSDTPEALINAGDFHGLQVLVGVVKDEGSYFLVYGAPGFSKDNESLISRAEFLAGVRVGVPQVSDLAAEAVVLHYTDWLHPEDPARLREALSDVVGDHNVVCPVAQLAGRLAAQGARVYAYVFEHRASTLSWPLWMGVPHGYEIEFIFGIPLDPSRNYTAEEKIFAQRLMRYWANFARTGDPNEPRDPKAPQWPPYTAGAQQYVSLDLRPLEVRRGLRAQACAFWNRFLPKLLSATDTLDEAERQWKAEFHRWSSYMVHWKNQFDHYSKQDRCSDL

Compound	IC50 [1] [µM]	Inhibition Rate of MAO (%) [1] [%]	IC50 [2] [µM]	Inhibition Rate (%) AChE [2] [%]	IC50 [3] [µM]	Inhibition Rate (%) BuChE [3] [%]
O=C(CN1CCc2ccccc2[C@H]1c1ccccc1)Nc1nc2c(Cl)cccc2s1 [Compound 4a, (R)–N–(4–chlorobenzo[d]thiazol–2–yl)–2–(1–phenyl–3,4–dihydroisoquinolin–2(1H)–yl)acetamide]	> 150	14.93	> 150	6.08	> 150	38.08
O=C(CN1CCc2ccccc2[C@H]1c1ccccc1)Nc1nc2cc(Br)ccc2s1 [Compound 4e, (R)–N–(5–bromobenzo[d]thiazol–2–yl)–2–(1–phenyl–3,4–dihydroisoquinolin–2(1H)–yl)acetamide]	128.1 ± 1.27	9.29	> 150	4.97	18.3 ± 2.68	68.80
Cc1ccc2sc(NC(=O)CN3CCc4ccccc4[C@H]3c3ccccc3)nc2c1 [Compound 4h, (R)–N–(5–methylbenzo[d]thiazol–2–yl)–2–(1–phenyl–3,4–dihydroisoquinolin–2(1H)–yl)acetamide]	76.4 ± 2.58	16.72	> 150	3.31	11.5 ± 3.22	37.44
COc1cccc2sc(NC(=O)CN3CCc4ccccc4[C@H]3c3ccccc3)nc12 [Compound 4j, (R)–N–(4–methoxybenzo[d]thiazol–2–yl)–2–(1–phenyl–3,4–dihydroisoquinolin–2(1H)–yl)acetamide]	> 150	5.70	> 150	12.71	> 150	51.52
COc1ccc2sc(NC(=O)CN3CCc4ccccc4[C@H]3c3ccccc3)nc2c1 [Compound 4k, (R)–N–(5–methoxybenzo[d]thiazol–2–yl)–2–(1–phenyl–3,4–dihydroisoquinolin–2(1H)–yl)acetamide]	65.5 ± 3.51	17.75	> 150	3.31	10.2 ± 2.91	57.92
COc1ccc2nc(NC(=O)CN3CCc4ccccc4[C@H]3c3ccccc3)sc2c1 [Compound 4l, (R)–N–(6–methoxybenzo[d]thiazol–2–yl)–2–(1–phenyl–3,4–dihydroisoquinolin–2(1H)–yl)acetamide]	76.3 ± 2.94	11.34	> 150	3.31	3.86 ± 0.82	41.92
O=C(CN1CCc2ccccc2[C@H]1c1ccccc1)Nc1nc2ccc(F)cc2s1 [Compound 4m, (R)–N–(6–fluorobenzo[d]thiazol–2–yl)–2–(1–phenyl–3,4–dihydroisoquinolin–2(1H)–yl)acetamide]	> 150	9.76	> 150	2.76	50.3 ± 1.68	22.33
O=C(CN1CCc2ccccc2[C@H]1c1ccccc1)Nc1nc2ccc([N+](=O)[O-])cc2s1 [Compound 4n, (R)–N–(6–nitrobenzo[d]thiazol–2–yl)–2–(1–phenyl–3,4–dihydroisoquinolin–2(1H)–yl)acetamide]	> 150	12.51	> 150	2.76	12.3 ± 3.76	20.31
O=C(CN1CCc2ccccc2[C@H]1c1ccccc1)Nc1nc2c(Cl)cc(Cl)cc2s1 [Compound 4o, (R)–N–(4,6–dichlorobenzo[d]thiazol–2–yl)–2–(1–phenyl–3,4–dihydroisoquinolin–2(1H)–yl)acetamide]	67.8 ± 1.26	10.19	> 150	3.87	21.8 ± 2.85	52.16
